Measured values from patent US4956355A, “Agents for the arrest and therapy of retroviral infections” (Colthurst Limited, priority 1987, dated 1990).
Where two headings read alike, the source gives them in different places.

Assays:
mitotic activity = settings: cited from earlier work
[1] = tested on: peripheral blood lymphocytes; assay: Nonspecific toxicity to peripheral blood lymphocytes; format: cell-based, human
[2] = murine model of SLE; cited from earlier work
HIV in human macrophages = assay: Inhibition of HIV production in normal human macrophages (supernatant p24, acute infection); format: cell-based
Description: (§1) 1. […] All three viral strains were grown in the Tissue Culture Laboratory of the AIDS Activity Division of San Francisco General Hospital where titers of […] infectious units per ml were routinely achieved.
2. Source of cells: The VB cell line used in Example 1 is a T lymphoma cell line that is highly susceptible to infection with HIV, and expresses high levels of cell surface CD4 molecules. This cell line forms syncytia within two days after infection with all strains of HIV tested to date. […] This is used to quantitate infection in the absence of syncytial formation, infection being quantitated by immunofluorescence assays. The HXB/H9 cell line (Example 6) is an H9 cell population that chronically produces the HTLV-IIIB strain of HIV and is utilised in experiments testing antiviral effects on chronically infected cell lines. Human macrophages were prepared from peripheral blood mononuclear cells either obtained from the blood bank as a buffy coat, or as a leukophoresis preparation. Crowe et al. supra have devised an assay system that allows quantitation of HIV infection, and inhibition of infection using immunocytofluorographic analysis. In order to quantitate HIV infection in macrophages, they grow macrophages in Teflon (Trade Mark) culture vessels which maintain macrophages in suspension in vitro culture for up to six months. Cell surface and cytoplasmic immunofluorescence staining is then performed to quantitate antigens in macrophages by flow cytometry.
(§2) 4. HIV soluble p24 antigen detection: Soluble p24 antigens were measured with the Abbott HIV antigen detection system.
(c) To test whether Compounds A and B were effective at blocking acute infection of macrophages, macrophages from Teflon cultures were exposed at a multiplicity of 1 to HIV-DV in the presence or absence of various concentrations of drug (Examples 3-5). Normally, HIV expression peaks in human macrophages at approximately ten days after initial infection. Therefore, after infection for one hour at room temperature, followed by a wash and resuspension of the macrophages in various drug concentrations, macrophages were stained for the presence of p24 antigen at day ten. Culture supernatants from these macrophages were assayed for the presence of soluble p24, and infectious virus as described above.
To test whether compounds A and B might be active at inhibiting infection of normal human macrophages, a spectrum of drug concentrations were tested for inhibition of acute infection, and inhibition of HIV expression in chronically infected macrophages. […] After acute infection (one hour) cells were incubated in various concentrations of compounds A and B, and 7 days after the initial infection supernatants were harvested for p24 antigen quantitation. […]

[3] = in vivo; cited from earlier work
HIV = assay: Use of dehydroepiandrosterone in AIDS therapy, twelve patients; format: in vivo, human patients
Description: Twelve patients all of whom were sero-positive for HIV and had been diagnosed as suffering from AIDS were treated with DHEA for up to six months. The DHEA was administered in the form of hard gelatin capsules containing 100 mg of DHEA and at a rate of 100 mg to 600 mg per day. The vast majority being on 500 mg per day in divided doses. The patients were all homosexual or bisexual males with an average age of 34.5 years and an average weight of 69.6 kg.
Past and present HIV clinical manifestations included: unexplained diarrhoea, Kaposis Sarcoma, Herpes Zoster, Oral Candidiasis, Lymphadenopathy, Oral Hairy Leucoplakia, involuntary weight loss, dermal mycoses and Stapholococcal skin infections.
All of the patients were in an advanced stage of AIDS at the commencement of the trial and normally further deterioration of their condition, or even death, would have been expected over the six month period of the trial. […] Patient 7 gained 8 kg over five months.

[4] = tested on: glucose-6-phosphate dehydrogenase; settings: cited from earlier work
[5] = tested on: HIV in activated peripheral blood lymphocytes; assay: Inhibition of HIV mediated cytopathic effects / p24 antigen production in activated peripheral blood lymphocytes; format: cell-based; settings: for p24 antigen production: activated PBL, about 7 days after infection, FIG. 2
Description: as §1, §2
(b) Although the VB T lymphoma cell line behaves in a similar manner to peripheral blood CD4 positive T lymphocytes in regard to HIV induced cytopathic effects, the above described experiments were performed on phytohemagglutinin (PHA) activated lymphocytes to determine whether lymphocytes are more or less sensitive to Compounds A and B than is the VB cell line. In this assay system, at the time that multinucleated giant cells appeared within infected lymphocyte cultures, the supernatants were analyzed for the presence of HIV p24 antigens and were titered on indicator VB lymphoma cells to determine the titer of infectious virus present at each point.
To test whether the effects of compounds A and B on acute VB T lymphoma infection would be mimicked by activated peripheral blood lymphocytes (PBC), HIV at a multiplicity of infection of one was added to lymphocytes that had been activated for 48 hours with 2 μg per ml of PHA. After the initial infection for one hour, the activated lymphocytes were washed and resuspended for the one week of culture. Multinucleated giant cells began to form approximately 7 days after the initial infection, at which time the culture supernatants were harvested and tested for the presence of HIV p24 antigens. The accumulation of HIV p24 antigens in the supernatant is representative of production of HIV from infected cells.

Structure (SMILES): C[C@]12CC[C@H](O)CC1=CC[C@@H]1[C@@H]2CC[C@]2(C)C(=O)CC[C@@H]12 [A, dehydroepiandrosterone]
- effect on mitotic activity (mitotic activity): inhibitory effect
- toxicity with the PBL cultures ([1]; 10^-4 and 10^-5 molar): No appreciable toxicity
- toxicity to peripheral blood lymphocytes ([1]; 10^-4 to 10^-8 molar): nor was there appreciable toxicity
- autoantibody formation [2]: prevents autoantibody formation
- decrease in production of HIV p24 antigens (supernatant) (HIV in human macrophages; 10^-4 through 10^-8 molar, 7 days after acute infection, FIG. 3): approximately 50%
- HIV infection and HIV expression in macrophages (HIV in human macrophages; in vitro, reproducible, six separate monocyte/macrophage donors): inhibit HIV infection and HIV expression in macrophages
- metabolic disorders and liver cirrhosis [3]: suppress some of the metabolic disorders and liver cirrhosis
- pain in ischemic heart disease, especially angina pectoris [3]: reduces pain
- patients gaining weight (HIV; of twelve patients, up to six months): four
- deterioration in condition (HIV; oral, 100 mg to 600 mg per day, up to six months, twelve advanced AIDS patients): no serious deterioration in condition
- weight gain of Patient 7 (HIV; over five months): 8 kg
- effect on glucose-6-phosphate dehydrogenase [4]: inhibits glucose-6-phosphate dehydrogenase
- effect on glucose-6-phosphate dehydrogenase ([4]; listed as DHEA): inhibitory effect
- p24 antigen production ([5]; 10^-4 molar): moderately inhibited
- p24 antigen production ([5]; 10^-5 molar): slightly less inhibited
- antiviral effects in comparison with AZT, lymphocytes ([5]; acute infection): inferior
- antiviral effect in acute infection studies of lymphocytes ([5]; acute infection, conclusions): mild antiviral effect
